Each structure is given as a SMILES string.

The assay relates to human ovarian carcinoma OVCAR3 cell line. Put plainly: CyQUANT Direct cell proliferation assay, OVCAR-3. The conditions noted are these: OVCAR-3, 168 h, 7 days. The format is cell-based. From the text:
The human ovarian carcinoma OVCAR3 cell line (ATCC HTB-161™) or human breast squamous HCC1806 cell line (ATCC CRL 2335) were obtained from American Type Culture Collection (ATCC), and maintained in culture media according to the supplier's specification.
The CyQUANT® Direct Cell Proliferation Assay Kit (Invitrogen™, catalog No. G35012) was utilized to test the inhibitory activities of the CDK2 inhibitors described in this disclosure against OVCAR3 or HCC1806 tumor cells.
CyQUANT® Direct Cell Proliferation Assay: The spent medium from the purchased tumor cell culture plate was removed and the tumor cells were washed with PBS buffer twice. Trypsin (VWR catalog No. 0458-25G) was added to digest the tumor cells until tumor cells appeared round shaped and to dissociate adherent cells from the plate wall in which they are being cultured. Then RPMI-1640 media (HCC1806, Gibco™ catalog No, A10491-01) with 10% fetal bovine serum (FBS) (Hyclone™ catalog No. SV30160.03), or RPMI-1640 media (OVCAR-3, Gibco™ catalog No. 10370-021) with 20% FBS and 0.01 mg/mL insulin was added to stop the trypsin digestion reaction. The tumor cells were lightly agitated with a liquid transfer pipette to cause tumor cells suspended in the culture media. The cells were counted. The complete medium was used to prepare tumor cell suspension.
OVCAR3 or HCC1806 cells were seeded at 40 μL/well in 384-well plates in growth media containing FBS and cultured 24 hours in the incubator at 37° C., 5% CO2. […] Compound solutions were added by Agilent Bravo liquid handler. […] The control wells contained the growth medium having 0.1% DMSO. Cells were incubated at 37° C., 5% CO2 for 7 days.
CYQUANT Direct Cell Proliferation Assay (Molecular Probes, Eugene, Oreg.) was then performed following manufacturer's instructions to prepare the detection reagents. 50 μL of detection reagent was aliquot and added to each well and the cells were incubated at 37° C. for 1 hr.
The cell culture plates were placed on TECAN M1000 microplate reader to detect the fluorescence intensity at 508 nm excitation and 527 nm emission wavelengths. Graphpad Prism 6.0 software was used for data processing, preparing cell growth curve, calculating percentage inhibition on cell growth. IC50 values were calculated by concentration-response curve fitting utilizing a four-parameter analytical method using GraphPad Prism software.

`C[C@@]1(O)CCC[C@H]1n1c(=O)c(C(F)F)cc2cnc(NC3CCN(S(C)(=O)=O)CC3)nc21` [Comp. 5, (−)-6-(difluoromethyl)-8-((1R,2R)-2-hydroxy-2-methylcyclopentyl)-2-((1-(methylsulfonyl)piperidin-4-yl)amino)pyrido[2,3-d]pyrimidin-7(8H)-one, reference compound] showed an IC50 of 40.3 nM. That is a double-digit nanomolar value.

Take `[2H]C(F)(F)c1cc2cnc(NC3CCN(S(C)(=O)=O)CC3)nc2n([C@@H]2CCC[C@@]2(C)O)c1=O` [Comp. 28, (−)-6-(difluoromethyl-d)-8-((1R,2R)-2-hydroxy-2-methylcyclopentyl)-2-((1-(methylsulfonyl)piperidin-4-yl)amino)pyrido[2,3-d]pyrimidin-7(8H)-one]: the midpoint of inhibition, the IC50, lay at 32.5 nM.

Usually IC50 stands for the concentration that gives 50% inhibition. A lower IC50 goes with greater potency.

(Values after patent US20230242526A1 (Zentaur Therapeutics International Limited, priority 2020, published 2023).)
